Legend:
Type in all cases: in vivo
[1] = system: Echinochloa crus-galli; experiment: Test Example 2: herbicidal effect test by treatment during growing period in paddy rice cultivation (seven days after seeding); details: 120 g/10a active ingredient, assessed 14 days after treatment, dry weight vs untreated area
Procedure, shortened: (§1)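 Paddy soil in Wagner pots with compound fertilizer, puddled; 30 seeds per species sown at 0–1 cm, flooded ~3 cm, greenhouse. Seven days after seeding, water-diluted emulsions were dropped into the water at 120 g active ingredient per 10 ares. Duplicate pots; herbicidal rate from dry weight versus untreated, 14 days after treatment.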

[2] = system: broad leaf weeds (Lindernia pyxidaria and Monochoria vaginalis); experiment: as above; details: 120 g/10a active ingredient, assessed 14 days after treatment, dry weight vs untreated area
Procedure, shortened: as §1

[3] = system: Scirpus juncoides; experiment: as above; details: 120 g/10a active ingredient, assessed 14 days after treatment, dry weight vs untreated area
Procedure, shortened: as §1

[4] = system: Echinochloa crus-galli; experiment: Test Example 4: herbicidal effect test by treatment of leave and stem in dry field farming (seven days after seeding); details: 120 g/10a active ingredient; emulsion sprayed seven days after seeding; evaluated 14 days after treatment
Procedure, shortened: (§2)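 Twenty seeds per species were mixed into the top 1 cm of alluvial soil in 36 cm^2 pots; emulsions were sprayed seven days after seeding at 100 L per 10 ares (120 g active ingredient per 10 ares). Herbicidal rate (%) = {1 − treated/untreated mean dry weight} × 100, 14 days after treatment, duplicate.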

[5] = system: southern crabgrass; experiment: as above; details: 120 g/10a active ingredient; emulsion sprayed seven days after seeding; evaluated 14 days after treatment
Procedure, shortened: as §2

[6] = system: Amaranthus viridis; experiment: as above; details: 120 g/10a active ingredient; emulsion sprayed seven days after seeding; evaluated 14 days after treatment
Procedure, shortened: as §2

[7] = system: Chenopodium album; experiment: as above; details: 120 g/10a active ingredient; emulsion sprayed seven days after seeding; evaluated 14 days after treatment
Procedure, shortened: as §2

[8] = system: Echinochloa crus-galli; experiment: Test Example 1: herbicidal effect test by treatment of rice paddy soil (immediately after seeding); details: 120 g/10a active ingredient, dry weight vs untreated area, 14 days after treatment
Procedure, shortened: (§3)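 Pre-emergence paddy water application, 120 g a.i./10 ares, applied immediately post-seeding into ~3 cm flood; glasshouse; duplicate pots; dry weight at 14 d → % inhibition = (1 − treated/untreated) × 100.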

[9] = system: broad leaf weeds (Lindernia pyxidaria and Monochoria vaginalis); experiment: as above; details: 120 g/10a active ingredient, dry weight vs untreated area, 14 days after treatment
Procedure, shortened: as §3

[10] = system: Scirpus juncoides; experiment: as above; details: 120 g/10a active ingredient, dry weight vs untreated area, 14 days after treatment
Procedure, shortened: as §3

[11] = system: Echinochloa crus-galli; experiment: Test Example 3: herbicidal effect test by treatment of dry field farming soil (one day after seeding); details: 120 g/10a active ingredient, evaluated 14 days after treatment
Procedure, shortened: (§4)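 Pre-emergence soil treatment: alluvial dry-field soil, 20 seeds per species mixed into top 1 cm, emulsion diluted in water sprayed one day after seeding at 100 L per 10 ares (120 g active ingredient per 10 ares). Duplicate pots; herbicidal rate (%) from dry weight vs untreated at 14 days.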

[12] = system: southern crabgrass; experiment: as above; details: 120 g/10a active ingredient, evaluated 14 days after treatment
Procedure, shortened: as §4

[13] = system: Amaranthus viridis; experiment: as above; details: 120 g/10a active ingredient, evaluated 14 days after treatment
Procedure, shortened: as §4

[14] = system: Chenopodium album; experiment: as above; details: 120 g/10a active ingredient, evaluated 14 days after treatment
Procedure, shortened: as §4

Compound | Herbicidal rate (%) Echinochloa crus-galli [1] | Herbicidal rate (%) Lindernia pyxidaria [2] | Herbicidal rate (%) Monochoria vaginalis [2] | Herbicidal rate (%) Scirpus juncoides [3] | herbicidal effect (herbicidal rate), Echinochloa crus-galli [4] | herbicidal effect (herbicidal rate), southern crabgrass [5] | herbicidal effect (herbicidal rate), Amaranthus viridis [6] | herbicidal effect (herbicidal rate), Chenopodium album [7] | Herbicidal rate (%) Echinochloa crus-galli [8] | Herbicidal rate (%) Lindernia pyxidaria [9] | Herbicidal rate (%) Monochoria vaginalis [9] | Herbicidal rate (%) Scirpus juncoides [10] | herbicidal rate, Echinochloa crus-galli [11] | herbicidal rate, southern crabgrass [12] | herbicidal rate, Amaranthus viridis [13] | herbicidal rate, Chenopodium album [14]
CCCC(C)n1oc(=O)c(Cc2ccccc2N(C(=O)C(C)C)S(=O)(=O)C(F)(F)F)c1C (centres unmarked) [Compound 1-334] | 100% | 70% | 70% | 90% | 90% | 90% | 60% | 60% | 100% | 70% | 80% | 90% | 90% | 70% | 50% | 40%
COCC(C)n1oc(=O)c(Cc2ccccc2N(C(=O)C(C)C)S(=O)(=O)C(F)(F)F)c1C (centres unmarked) [Compound 1-335] | 90% | 90% | 90% | 90% | 90% | 90% | 40% | 40% | 90% | 90% | 90% | 90% | 90% | 90% | 90% | 90%
CSCCn1oc(=O)c(Cc2ccccc2N(C(=O)C(C)C)S(=O)(=O)C(F)(F)F)c1C [Compound 1-336] | 90% | 90% | 90% | 90% | 90% | 90% | 40% | 40% | 90% | 90% | 90% | 90% | 90% | 90% | 90% | 90%
Cc1c(Cc2ccccc2N(C(=O)C(C)C)S(=O)(=O)C(F)(F)F)c(=O)on1C(C)c1ccccc1 (centres unmarked) [Compound 1-337] | 90% | 90% | 90% | 90% | 90% | 90% | 40% | 40% | 90% | 90% | 90% | 90% | 90% | 90% | 90% | 90%
Cc1c(Cc2ccccc2N(C(=O)CC(C)C)S(=O)(=O)C(F)(F)F)c(=O)on1C(C)(C)C [Compound 1-351] | 90% | 90% | 90% | 90% | 90% | 90% | 40% | 40% | 90% | 90% | 90% | 90% | 90% | 90% | 90% | 90%
CCC(C)n1oc(=O)c(Cc2ccccc2N(C(=O)CC(C)C)S(=O)(=O)C(F)(F)F)c1C (centres unmarked) [Compound 1-352] | 90% | 90% | 90% | 90% | 90% | 90% | 40% | 40% | 90% | 90% | 90% | 90% | 90% | 90% | 90% | 90%
CCC(CC)n1oc(=O)c(Cc2ccccc2N(C(=O)CC(C)C)S(=O)(=O)C(F)(F)F)c1C [Compound 1-353] | 90% | 90% | 90% | 90% | 90% | 90% | 40% | 40% | 90% | 90% | 90% | 90% | 90% | 90% | 90% | 90%
Cc1c(Cc2ccccc2N(C(=O)CC(C)C)S(=O)(=O)C(F)(F)F)c(=O)on1CC(C)C [Compound 1-354] | 100% | 70% | 90% | 90% | 80% | 60% | 40% | 40% | 100% | 90% | 90% | 90% | 90% | 80% | 90% | 90%

Source: patent US11109593B2, “Isoxazolin-5-one derivative and herbicide containing same as active ingredient” (HOKKO CHEMICAL INDUSTRY CO., LTD., priority 2017, dated 2021)
